The source of these data is patent publication US20240245673A1, “Papain-like protease (PLpro) inhibitors” (Pfizer Inc., priority 2022, published 2024).

The target of the assay is SARS-CoV-2 Papain like protease (PLpro) (Severe acute respiratory syndrome coronavirus 2 (2019-nCoV) (SARS-CoV-2), UniProt P0DTD1). Kind of assay: Papain Like Protease (PLpro) biochemical assay with profluorogenic substrate Z-RLRGG-AMC. The following applies: SARS-CoV-2 PLpro 6.25 nM, 25 μM Z-RLRGG-AMC substrate, 60 minute reaction; read-out: IC50.

Broadly, the IC50 is the concentration that gives 50% inhibition. Turning to `Cc1ccccc1C(=O)NC(C)c1cc(-c2ccc3nonc3c2)nc2ccccc12` (centres unmarked) [Example 111, N-{1-[2-(2,1,3-benzoxadiazol-5-yl)quinolin-4-yl]ethyl}-2-methylbenzamide], the IC50 turned out to be 17.3 µM.
Under `COCCn1cc(-c2cc(C(C)NC(=O)c3ccccc3C)c3ccccc3n2)cn1` (centres unmarked) [Example 112, N-(1-{2-[1-(2-methoxyethyl)-1H-pyrazol-4-yl]quinolin-4-yl}ethyl)-2-methylbenzamide] stands 0.294 µM; under `Cc1ccccc1C(=O)NC(C)c1cc(-c2cnn(C(C)(C)C)c2)nc2ccccc12` (centres unmarked) [Example 113, N-{1-[2-(1-tert-butyl-1H-pyrazol-4-yl)quinolin-4-yl]ethyl}-2-methylbenzamide], 0.79 µM.
The value for `Cc1ccccc1C(=O)NC(C)c1cc(-c2cccnc2)nc2ccccc12` (centres unmarked) [Example 114, 2-methyl-N-{1-[2-(pyridin-3-yl)quinolin-4-yl]ethyl}benzamide] was 0.877 µM.
The value for `CCn1cc(-c2cc(C(C)NC(=O)c3ccccc3C)c3ccccc3n2)c(C)n1` (centres unmarked) [Example 115, N-{1-[2-(1-ethyl-3-methyl-1H-pyrazol-4-yl)quinolin-4-yl]ethyl}-2-methylbenzamide] was 1.08 µM.
With `Cc1ccccc1C(=O)NC(C)c1cc(-c2ccc3oc(=O)[nH]c3c2)nc2ccccc12` (centres unmarked) [Example 116, 2-methyl-N-{1-[2-(2-oxo-2,3-dihydro-1,3-benzoxazol-5-yl)quinolin-4-yl]ethyl} benzamide], the IC50 stood at 0.406 µM.
The value for `Cc1cc(-c2cc(C(C)NC(=O)c3ccccc3C)c3ccccc3n2)c[nH]1` (centres unmarked) [Example 117, 2-methyl-N-{1-[2-(5-methyl-1H-pyrrol-3-yl)quinolin-4-yl]ethyl}benzamide] was 0.412 µM.
The value for `Cc1ccccc1C(=O)NC(C)c1cc(-c2ccc3ncnn3c2)nc2ccccc12` (centres unmarked) [Example 118, 2-methyl-N-{1-[2-([1,2,4]triazolo[1,5-a]pyridin-6-yl)quinolin-4-yl]ethyl}benzamide] was 1.32 µM; that for `Cc1ccccc1C(=O)NC(C)c1cc(-c2ccsc2)nc2ccccc12` (centres unmarked) [Example 119, 2-methyl-N-{1-[2-(thiophen-3-yl)quinolin-4-yl]ethyl} benzamide] was 0.244 µM.
Under `Cc1ccccc1C(=O)NC(C)c1cc(-c2cnn(CC(F)F)c2)nc2ccccc12` (centres unmarked) [Example 120, N-(1-{2-[1-(2,2-difluoroethyl)-1H-pyrazol-4-yl]quinolin-4-yl}ethyl)-2-methylbenzamide] stands 0.345 µM; under `COCCn1nc(C)c(-c2cc(C(C)NC(=O)c3ccccc3C)c3ccccc3n2)c1C` (centres unmarked) [Example 121, N-(1-{2-[1-(2-methoxyethyl)-3,5-dimethyl-1H-pyrazol-4-yl]quinolin-4-yl}ethyl)-2-methylbenzamide], 1.42 µM; under `Cc1ccccc1C(=O)NC(C)c1cc(-c2ccc(NS(C)(=O)=O)cc2)nc2ccccc12` (centres unmarked) [Example 122, N-[1-(2-{4-[(methanesulfonyl)amino]phenyl}quinolin-4-yl)ethyl]-2-methylbenzamide], 0.201 µM.
As to `Cc1ccccc1C(=O)NC(C)c1cc(-c2cnn(CC3(C#N)CC3)c2)nc2ccccc12` (centres unmarked) [Example 123, N-[1-(2-{1-[(1-cyanocyclopropyl)methyl]-1H-pyrazol-4-yl}quinolin-4-yl)ethyl]-2-methylbenzamide], the IC50 stood at 0.329 µM.
As for `Cc1ccccc1C(=O)NC(C)c1cc(-c2cc(C(C)C)no2)nc2ccccc12` (centres unmarked) [Example 124, 2-methyl-N-(1-{2-[3-(propan-2-yl)-1,2-oxazol-5-yl]quinolin-4-yl}ethyl)benzamide], the IC50 was determined as 0.635 µM.
In the case of `Cc1ccccc1C(=O)NC(C)c1cc(-c2cnn(CCN3CCOCC3)c2)nc2ccccc12` (centres unmarked) [Example 125, 2-methyl-N-[1-(2-{1-[2-(morpholin-4-yl)ethyl]-1H-pyrazol-4-yl}quinolin-4-yl)ethyl]benzamide], the IC50 was found to be 0.294 µM.
Under `Cc1ccccc1C(=O)NC(C)c1cc(-c2cn(C)nc2C)nc2ccccc12` (centres unmarked) [Example 126, N-{1-[2-(1,3-dimethyl-1H-pyrazol-4-yl)quinolin-4-yl]ethyl}-2-methylbenzamide] stands 0.845 µM.
Under `Cc1ccccc1C(=O)NC(C)c1cc(-c2ccc(N)nc2)nc2ccccc12` (centres unmarked) [Example 127, N-{1-[2-(6-aminopyridin-3-yl)quinolin-4-yl]ethyl}-2-methylbenzamide] stands 1.82 µM; under `COC(=O)c1c[nH]c(-c2cc(C(C)NC(=O)c3ccccc3C)c3ccccc3n2)c1` (centres unmarked) [Example 128, methyl 5-{4-[1-(2-methylbenzamido)ethyl]quinolin-2-yl}-1H-pyrrole-3-carboxylate], 0.164 µM; under `Cc1ccccc1C(=O)NC(C)c1cc(-c2cnn(C)c2C)nc2ccccc12` (centres unmarked) [Example 129, N-{1-[2-(1,5-dimethyl-1H-pyrazol-4-yl)quinolin-4-yl]ethyl}-2-methylbenzamide], 0.666 µM.
Consider `Cc1ccccc1C(=O)NC(C)c1cc(-c2cncnc2)nc2ccccc12` (centres unmarked) [Example 130, 2-methyl-N-{1-[2-(pyrimidin-5-yl)quinolin-4-yl]ethyl} benzamide], for which the IC50 is 3.1 µM.
Take `Cc1ccccc1C(=O)NC(C)c1cc(-c2cnn3cccnc23)nc2ccccc12` (centres unmarked) [Example 131, 2-methyl-N-{1-[2-(pyrazolo [1,5-a]pyrimidin-3-yl)quinolin-4-yl]ethyl}benzamide]: the IC50 is 2.91 µM.
For `Cc1ccccc1C(=O)NC(C)c1cc(-c2cn(C)nc2C(F)(F)F)nc2ccccc12` (centres unmarked) [Example 132, 2-methyl-N-(1-{2-[1-methyl-3-(trifluoromethyl)-1H-pyrazol-4-yl]quinolin-4-yl}ethyl) benzamide], the IC50 was 0.844 µM.
The value for `COC(=O)c1ccc(-c2cc(C(C)NC(=O)c3ccccc3C)c3ccccc3n2)o1` (centres unmarked) [Example 133, methyl 5-{4-[1-(2-methylbenzamido)ethyl]quinolin-2-yl}furan-2-carboxylate] was 0.392 µM; that for `Cc1ccccc1C(=O)NC(C)c1cc(-c2ccc3c(c2)nnn3C)nc2ccccc12` (centres unmarked) [Example 134] was 0.432 µM.
The value for `Cc1ccccc1C(=O)NC(C)c1cc(-c2cnn(C)n2)nc2ccccc12` (centres unmarked) [Example 135, 2-methyl-N-{1-[2-(2-methyl-2H-1,2,3-triazol-4-yl)quinolin-4-yl]ethyl}benzamide] was 0.855 µM; that for `Cc1ccccc1C(=O)NC(C)c1cc(-c2cn(C(C)C)nc2C)nc2ccccc12` (centres unmarked) [Example 136, 2-methyl-N-(1-{2-[3-methyl-1-(propan-2-yl)-1H-pyrazol-4-yl]quinolin-4-yl}ethyl) benzamide] was 1.41 µM.
In the case of `Cc1ccccc1C(=O)NC(C)c1cc(-c2cncc(F)c2)nc2ccccc12` (centres unmarked) [Example 137, N-{1-[2-(5-fluoropyridin-3-yl)quinolin-4-yl]ethyl}-2-methylbenzamide], the IC50 is 1.13 µM.
Under `Cc1ccccc1C(=O)NC(C)c1cc(NCc2cocn2)nc2ccccc12` (centres unmarked) [Example 138, 2-methyl-N-[1-(2-{[(1,3-oxazol-4-yl)methyl]amino}-quinolin-4-yl)ethyl]benzamide] stands 0.944 µM.
In the case of `Cc1ccccc1C(=O)NC(C)c1cc(NCc2cnco2)nc2ccccc12` (centres unmarked) [Example 139, 2-methyl-N-[1-(2-{[(1,3-oxazol-5-yl)methyl]amino}-quinolin-4-yl)ethyl]benzamide], the IC50 was 0.675 µM.
